{"source": "patent US20150139973A1", "about": "“OPHTHALMOLOGICAL VEHICLE SYSTEM FOR DRUGS, OPHTHALMOLOGICAL KIT AND ALSO USE OF AN OPHTHALMOLOGICAL COMPOSITION” (F. HOLZER GMBH, priority 2012, published 2015)", "test_system": "human corneal epithelial cell line HCE-T", "test": "Vitality determination on corneal epithelial cells in culture (Cell Titer Blue test)", "type": "cell-based", "conditions": "60 minutes incubation", "procedure": "The cytotoxicity tests were performed on the human corneal epithelial cell line […]. in the cell test. Cultivation was effected in a black 96 well plate (Nunc). Per well, 25,000 cells were sown and cultivated for 48 h. Determination of the viability was implemented with the Cell Titer Blue® test. The dye resazurin is hereby added to the cells after exposure with the samples. Viable cells are able, because of their mitochondrial activity, to convert the resazurin into the fluorescent resorufin which can be determined fluorimetrically (Illustration 1). Via positive control (Krebs-Ringer-buffer-KRB and saline phosphate buffer-PBS) and also negative control (lysis buffer), the viability of the cells can be expressed as a percentage. All samples were determined with n=6. For the determination, the cell culture medium was removed, the cells were rinsed with KRB and incubated for 60 minutes with the various samples and also controls. […] Thereafter, all samples were treated with KRB and resazurin according to Promega protocol and measured with a Genios Plate Reader (Tecan).", "data": [{"smiles": "CCCCCCCCCCCCCCCC(=O)OC(C)C", "note": "[Sample K4, isopropyl palmitate]", "values": [{"measurement": "cytotoxicity", "value": "lowest cytotoxicity"}, {"measurement": "survival rate of the cells", "value": 100, "unit": "%"}]}]}
